Test in all cases: Glasshouse assay for herbicidal activity (pre- and post-emergence), percentage phytotoxicity
Holding throughout (format): in vivo

Assay [1] has as its system Alopecurus myosuroides (ALOMY). As to conditions: Alopecurus myosuroides. In outline: (§1)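 Pot-grown plants treated one day after sowing (pre-emergence) or at about 12 days (post-emergence); glasshouse at 24/18° C (warm) or 20/16° C (cool species) day/night, 16 h light, 65% humidity. Visual % phytotoxicity (0 = none, 100 = total damage) scored at 15 DAA post or 20 DAA pre.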

The test system of another assay is Avena fatua (AVEFA). Particulars: Avena fatua. In outline:
as §1

For assay [2], the system named is Echinochloa crus-galli (ECHCG). As to conditions: Echinochloa crus-galli. Put shortly: as §1
The test system of a further assay is Lolium perenne (LOLPE). As to conditions: Lolium perenne. In outline:
as §1

The mark [3] stands for this setting: post-emergence, 360 h, Rate 250 g/ha, post-emergence, assessed visually 15 DAA, 100%=total damage, 0%=no damage, read-out: Post-emergence herbicidal activity (percentage phytotoxicity) ALOMY POST.
The mark [4] stands for this setting: pre-emergence, 480 h, Rate 250 g/ha, pre-emergence, assessed visually 20 DAA, 100%=total damage, 0%=no damage, read-out: Pre-emergence herbicidal activity (percentage phytotoxicity) ALOMY PRE.
Setting [5] is: post-emergence, 360 h, Rate 250 g/ha, post-emergence, assessed visually 15 DAA, 100%=total damage, 0%=no damage, read-out: Post-emergence herbicidal activity (percentage phytotoxicity) AVEFA POST.
Setting [6] is: pre-emergence, 480 h, Rate 250 g/ha, pre-emergence, assessed visually 20 DAA, 100%=total damage, 0%=no damage, read-out: Pre-emergence herbicidal activity (percentage phytotoxicity) AVEFA PRE.
Where [7] appears, read: post-emergence, 360 h, Rate 250 g/ha, post-emergence, assessed visually 15 DAA, 100%=total damage, 0%=no damage, read-out: Post-emergence herbicidal activity (percentage phytotoxicity) ECHCG POST.
Where [8] appears, read: pre-emergence, 480 h, Rate 250 g/ha, pre-emergence, assessed visually 20 DAA, 100%=total damage, 0%=no damage, read-out: Pre-emergence herbicidal activity (percentage phytotoxicity) ECHCG PRE.
Where [9] appears, read: post-emergence, 360 h, Rate 250 g/ha, post-emergence, assessed visually 15 DAA, 100%=total damage, 0%=no damage, read-out: Post-emergence herbicidal activity (percentage phytotoxicity) LOLPE POST.
Setting [10] is: pre-emergence, 480 h, Rate 250 g/ha, pre-emergence, assessed visually 20 DAA, 100%=total damage, 0%=no damage, read-out: Pre-emergence herbicidal activity (percentage phytotoxicity) LOLPE PRE.
Where [11] appears, read: post-emergence, 360 h, Rate 250 g/ha, post-emergence, visual assessment 15 DAA, 100%=total damage, 0%=no damage, read-out: Post-emergence herbicidal activity (percentage phytotoxicity) ALOMY POST.
[12] abbreviates: pre-emergence, 480 h, Rate 250 g/ha, pre-emergence, visual assessment 20 DAA, 100%=total damage, 0%=no damage, read-out: Pre-emergence herbicidal activity (percentage phytotoxicity) ALOMY PRE.
Where [13] appears, read: post-emergence, 360 h, Rate 250 g/ha, post-emergence, visual assessment 15 DAA, 100%=total damage, 0%=no damage, read-out: Post-emergence herbicidal activity (percentage phytotoxicity) AVEFA POST.
Where [14] appears, read: pre-emergence, 480 h, Rate 250 g/ha, pre-emergence, visual assessment 20 DAA, 100%=total damage, 0%=no damage, read-out: Pre-emergence herbicidal activity (percentage phytotoxicity) AVEFA PRE.
[15] abbreviates: post-emergence, 360 h, Rate 250 g/ha, post-emergence, visual assessment 15 DAA, 100%=total damage, 0%=no damage, read-out: Post-emergence herbicidal activity (percentage phytotoxicity) ECHCG POST.
Where [16] appears, read: pre-emergence, 480 h, Rate 250 g/ha, pre-emergence, visual assessment 20 DAA, 100%=total damage, 0%=no damage, read-out: Pre-emergence herbicidal activity (percentage phytotoxicity) ECHCG PRE.
Setting [17] is: post-emergence, 360 h, Rate 250 g/ha, post-emergence, visual assessment 15 DAA, 100%=total damage, 0%=no damage, read-out: Post-emergence herbicidal activity (percentage phytotoxicity) LOLPE POST.
The mark [18] stands for this setting: pre-emergence, 480 h, Rate 250 g/ha, pre-emergence, visual assessment 20 DAA, 100%=total damage, 0%=no damage, read-out: Pre-emergence herbicidal activity (percentage phytotoxicity) LOLPE PRE.

Consider eight molecules from patent US10206394B2, “Herbicidal compounds” (Syngenta Participations AG, priority 2014, dated 2019).

Each structure is given as a SMILES string. Where two headings read alike, the source gives them in different places.

With `Cc1cc(C)c(C2C(=O)CC(C(C)C(=O)NCc3ncccc3Cl)C2=O)c(C)c1` (stereo not drawn) [Compound A167], the pest or weed control at 250 g/ha was determined as 20% in assay [1] (setting [3]); 20% in assay [1] (setting [4]); 70% with Avena fatua (AVEFA) (setting [5]); 10% with Avena fatua (AVEFA) (setting [6]); 80% in assay [2] (setting [7]); 80% in assay [2] (setting [8]). For the same molecule, the pest or weed control at 250 g/ha with Lolium perenne (LOLPE) (setting [9]) was 60%; in the assay on Lolium perenne (LOLPE) (setting [10]) it was 80%.
Consider `Cc1cc(C)c(C2=C(OC(=O)C(C)(C)C)CC(CC(=O)N(C(=O)C(C)(C)C)C3COC3)C2=O)c(C)c1` (stereo not drawn) [Compound P12], for which the pest or weed control at 250 g/ha in assay [1] (setting [11]) worked out at 80%; in assay [1] (setting [12]), 20%; in the assay with Avena fatua (AVEFA) (setting [13]) it was 60%; in the assay with Avena fatua (AVEFA) (setting [14]), 0%; in assay [2] (setting [15]), 60%; in assay [2] (setting [16]), 70%. Further, the values for the pest or weed control at 250 g/ha in the assay with Lolium perenne (LOLPE) (setting [17]) and in the assay on Lolium perenne (LOLPE) (setting [18]) were 80% and 60%, respectively.
Consider `CCNC(=O)CC1CC(=O)C(c2c(C)cc(-c3ccc(Cl)cn3)cc2C)C1=O` (stereo not drawn) [Compound B306], for which the pest or weed control at 250 g/ha in assay [1] (post-emergence, 360 h, POST-emergence, rate 250 g/ha, visual score 15 DAA (100%=total damage, 0%=no damage), read-out: Post-emergence herbicidal activity (percentage phytotoxicity) ALOMY POST) worked out at 100%; in assay [1] (pre-emergence, 480 h, PRE-emergence, rate 250 g/ha, visual score 20 DAA (100%=total damage, 0%=no damage), read-out: Pre-emergence herbicidal activity (percentage phytotoxicity) ALOMY PRE), 100%; with Avena fatua (AVEFA) (post-emergence, 360 h, POST-emergence, rate 250 g/ha, visual score 15 DAA (100%=total damage, 0%=no damage), read-out: Post-emergence herbicidal activity (percentage phytotoxicity) AVEFA POST) it was 100%; with Avena fatua (AVEFA) (pre-emergence, 480 h, PRE-emergence, rate 250 g/ha, visual score 20 DAA (100%=total damage, 0%=no damage), read-out: Pre-emergence herbicidal activity (percentage phytotoxicity) AVEFA PRE), 100%; in assay [2] (post-emergence, 360 h, POST-emergence, rate 250 g/ha, visual score 15 DAA (100%=total damage, 0%=no damage), read-out: Post-emergence herbicidal activity (percentage phytotoxicity) ECHCG POST) it was 100%; in assay [2] (pre-emergence, 480 h, PRE-emergence, rate 250 g/ha, visual score 20 DAA (100%=total damage, 0%=no damage), read-out: Pre-emergence herbicidal activity (percentage phytotoxicity) ECHCG PRE) it was 100%. The pest or weed control at 250 g/ha is 100% in the assay on Lolium perenne (LOLPE) (post-emergence, 360 h, POST-emergence, rate 250 g/ha, visual score 15 DAA (100%=total damage, 0%=no damage), read-out: Post-emergence herbicidal activity (percentage phytotoxicity) LOLPE POST) and 100% with Lolium perenne (LOLPE) (pre-emergence, 480 h, PRE-emergence, rate 250 g/ha, visual score 20 DAA (100%=total damage, 0%=no damage), read-out: Pre-emergence herbicidal activity (percentage phytotoxicity) LOLPE PRE).
As for `COc1ccc(CNC(=O)CC2CC(=O)C(c3c(C)cc(-c4ccc(Cl)cn4)cc3C)C2=O)cc1` (stereo not drawn) [Compound B380], the pest or weed control at 250 g/ha in assay [1] (setting [11]) came out at 70%; in assay [1] (setting [12]) it was 70%; in the assay with Avena fatua (AVEFA) (setting [13]) it was 90%; in the assay with Avena fatua (AVEFA) (setting [14]), 80%; in assay [2] (setting [15]) it was 100%; in assay [2] (setting [16]) it was 90%. In addition, the pest or weed control at 250 g/ha in the assay on Lolium perenne (LOLPE) (setting [17]) is 90%; in the assay on Lolium perenne (LOLPE) (setting [18]), 80%.
In the case of `Cc1ccc(/C=C/C2(NC(=O)CC3CC(=O)C(c4c(C)cc(C)cc4C)C3=O)CC2)cc1` (stereo not drawn) [Compound A101], the pest or weed control at 250 g/ha was 10% in assay [1] (setting [3]), 0% in the assay on Avena fatua (AVEFA) (setting [5]), 20% in assay [2] (setting [7]) and 40% with Lolium perenne (LOLPE) (setting [9]).
With `Cc1cc(C)c(C2C(=O)CC(CC(=O)NCc3ccc(C(F)(F)F)nc3)C2=O)c(C)c1` (stereo not drawn) [Compound A98], the pest or weed control at 250 g/ha in assay [1] (setting [3]) is 90%; in assay [1] (setting [4]) it was 100%; in the assay with Avena fatua (AVEFA) (setting [5]), 90%; in the assay with Avena fatua (AVEFA) (setting [6]), 20%; in assay [2] (setting [7]), 60%; in assay [2] (setting [8]), 80%. Moreover, the pest or weed control at 250 g/ha with Lolium perenne (LOLPE) (setting [9]) and with Lolium perenne (LOLPE) (setting [10]) was 80% in each case.
On to `C#CCN(C)C(=O)CC1CC(=O)C(c2c(C)cc(-c3ccc(Cl)cn3)cc2C)C1=O` (stereo not drawn) [Compound B369], for which the pest or weed control at 250 g/ha in assay [1] (setting [11]) was determined as 90%; in assay [1] (setting [12]), 100%; in the assay with Avena fatua (AVEFA) (setting [13]), 100%; in the assay on Avena fatua (AVEFA) (setting [14]), 100%; in assay [2] (setting [15]), 100%; in assay [2] (setting [16]), 100%. Further, the pest or weed control at 250 g/ha with Lolium perenne (LOLPE) (setting [17]) amounted to 90%; in the assay with Lolium perenne (LOLPE) (setting [18]), 100%.
`Cc1cc(C)c(C2C(=O)CC(CC(=O)N(C)CC(C)C)C2=O)c(C)c1` (stereo not drawn) [Compound A159]: the pest or weed control at 250 g/ha was found to be 70% in assay [1] (setting [3]); 60% in assay [1] (setting [4]); 50% in the assay with Avena fatua (AVEFA) (setting [5]); 20% with Avena fatua (AVEFA) (setting [6]); 80% in assay [2] (setting [7]); 90% in assay [2] (setting [8]). Moreover, the pest or weed control at 250 g/ha in the assay on Lolium perenne (LOLPE) (setting [9]) and in the assay with Lolium perenne (LOLPE) (setting [10]) was 90% throughout.
